Source: patent publication US11566049B2, “Cyclic peptides and uses thereof” (LATERAL IP PTY LTD, priority 2018, dated 2023)
Entries after “also recorded” stand apart in the source; their conditions may differ. Positions of bridges follow the written chain, without caps; N, C: chain ends. No end group written: not given here.

Tests used:
Chung model rats = experiment: Chung model of neuropathic pain, paw withdrawal (Example 2); format: in vivo, rat; details: 10 mg/kg orally or intramuscular; 1, 2 and 4 hours post-dosing; n=8
Description: The peptide of SEQ ID NO:26 was administered at 10 mg/kg either orally (PQ) or by intramuscular (IM) injection to Chung model rats and pain was assessed by paw withdrawal. Pre-dosing control; Vehicle: 5% DMSO in PBS. *** p<0.001, compared to the same time points in the Vehicle control group; #p<0.05, compared to SEQ ID NO:26 PO group at the same time point. n=8 for each group.
An […] Chung model of chronic nerve constriction in rats (Chung et al., Methods Mol. Med. 2004; 99:35-45) was used to assess the effect of SEQ ID NO:26 on neuropathic pain. SEQ ID NO:26 was administered at 10 mg/kg either orally or by intramuscular injection to Chung model rats and pain was assessed by paw withdrawal.

[1] = test system: Lamina I or II neurons in the dorsal horn; experiment: whole-cell patch clamp recording in spinal cord slices with intact dorsal root afferents from Chung models (Example 1); format: cell-based, rat
Description: An in vitro spinal cord slice with intact dorsal root afferents combined with single-cell whole-cell patch claim electrophysiological recording techniques was used to assess the electrophysiological properties of SEQ ID NO:26 (SCRSRPVESSC; also referred to herein as LAT9993).
Spinal cord slices were prepared from models of neuropathic pain (Chung models; as previously described in Chung et al., Methods Mol Med. 2004; 99:35-45, the contents of which are incorporated herein by reference) and tested against the peptide of SEQ ID NO:26. Chung model rats, aged 8 to 12 weeks, were housed in an air-conditioned room on a 12 hour light/dark cycle with food and water available ad libitum. The rats were terminally anaesthetized using isofluorane and decapitated. […]
Whole-cell recordings were performed at 34-35° C. from Lamina I or II neurons in the dorsal horm of the spinal cord slices using Axopatch 1D and/or Multiclamp 700B amplifies and using the “blind” version of the patch-clamp technique. […] Biocytin was included in the patch solution to allow post-recording identification of the recorded neurons. The peptide of SEQ ID NO:26 was applied to the recorded tissue in the tissue bath at concentrations between 0.5 μM and 5 μM.

With “SCRSRPVESSC (disulfide 2-11 (inferred); listed as Homo sapiens) [SEQ ID NO:26, cyclic peptide of formula (I) formed by a disulphide bond between the two cysteine residues]” the “pain as measured by paw withdrawal threshold (PWT)” value (Chung model rats) was “significantly reduced pain”, the “neuronal input resistance (effect in words)” value ([1]; 1 μM (FIG. 2), bath applied) was “reduction in neuronal input resistance; also recorded: reversible on washout” and the “excitatory postsynaptic potentials (EPSPs)” value ([1]; 5 μM (FIG. 3), 0.1 Hz, 1 Hz) was “suppressed”.
